Non-standard residues stand in square brackets, D forms with d. No end group written: not given here. Phe(4-NO2) = N[C@@H](Cc1ccc([N+](=O)[O-])cc1)C(=O)O
Legend:
[1] = cited from earlier work; for analgesic effect: systemic route of administration; for analgesic potency compared with morphine: systemic administration
μ and δ receptors = settings: cited from earlier work
[2] = Addiction liabilities and tolerance (background); format: in vivo; settings: compared to morphine
[3] = CNS and cardiovascular effects (background); settings: in vivo
rhesus monkeys = assay: 30 days toxicity study by subcutaneous route in rhesus monkey; format: in vivo; settings: s.c. once daily 30 days, 3.75, 7.5 and 15 mg/kg
Description: (§1) 30 days toxicity study or L-Tyrosyl-D-alanyl-glycyl-N-methylphenylalanyl-glycyl-isopropylamide in rat and rhesus monkey by subcutaneous route.
(§2) Compound L-Tyrosyl-D-alanyl-glycyl-N-methylphenytalanyt-glycyl-isopropylamide dissolved in saline was given daily by subcutaneous route to groups of rats (n=10 males and 10 females in each group) and rhesus monkeys ([…] and 2 females in each group) once daily for 30 consecutive days. The dose levels used in rats were 0.0, 7.5, 15.0 and 30.0 mg/kg and in monkeys 0.0, 3.75, 7.5 and 15 mg/kg. Dose levels were selected on the basis of rat ED of 3.0 mg/kg and extrapolation thereof in the monkey.
(§3) A careful general inspection of the animals was done at least once each day Cage-side observations included changes in skin and fur, eyes and mucous membranes, general activity and behavior and also general signs of abnormal functioning of respiratory, circulators, autonomic and central nervous system and somatomotor activity. Body weights (weekly in rats initial and day 30 in monkeys), daily food (rat and monkeys) and water (rat only) consumption and parameters of hematology urinalysis and blood biochemistry of the animals was recorded All the animals were sacrificed at the end of 30 days. Necropsy was performed and histophathological examination of all the important organs and tissues were done. […]

rats = assay: 30 days toxicity study by subcutaneous route in rat; format: in vivo; settings: s.c. once daily 30 days, 7.5, 15.0 and 30.0 mg/kg
Description: as §1, §2, §3

LD50 in mice = settings: mouse, in vivo, ip
Description: It is evident from above table that the ED50 of beta CD complex is about one third than the compound L-Tyrosyl-D-alanyl-glycyl-N-methylphenylalanyl-glycyl-isopropylamide by subcutaneous route and was one half by oral route. The LD50 of the compound L-Tyrosyl-D-alanyl-glycyl-N-methylphenylalanyl-glycyl-isopropylamide is 1000 mg/Kg i.p., and that of the complex is >10,000 mg/kg P. O. in mice.

[4] = Chronic and subacute toxicity studies (background); settings: in vivo
leucine amino peptidase = settings: enzyme hydrolysis with leucine amino peptidase; cited from earlier work

Compound: Tyr-D-Ala-Gly,-Met(o)-01 [FK-33-824]
- analgesic effect [1]: strong analgesic effect
- opioid receptor selectivity (μ and δ receptors): only slight preference for p-receptors

Compound: CC(C)NC(=O)CNC(=O)[C@H](Cc1ccccc1)N(C)C(=O)CNC(=O)[C@@H](C)NC(=O)[C@@H](N)Cc1ccc(O)cc1 [L-Tyrosyl-D-alanyl-glycyl-N-methylphenylalanyl-glycyl-isopropylamide]
- tolerance and addiction properties [2]: significantly reduced tolerance and addiction properties as compared to morphine
- CNS effects like sedation and respiratory depression [3]: virtually devoid of any major CNS effects
- cardiovascular effects [3]: virtually devoid of any significant cardiovascular effects
- 30-day toxicity finding (rhesus monkeys): safe
- 30-day toxicity finding (rats): safe
- LD50 (LD50 in mice): 1000 mg/kg
- chronic and subacute toxicity finding [4]: safe and did not produce any noticeable toxic side effects

Compound: Tyr-D-Ala-Gly-Phe-MeMet-NH2 [met-kephamid]
- analgesic effect [1]: strong analgesic effect
- opioid receptor selectivity (μ and δ receptors): essentially non-elective for μ and δ receptors

Compound: Tyr-Arg-Gly-Phe(pNO2)-Pro-NH2 (YRG[Phe(4-NO2)]P-NH2; N-terminus assumed; SMILES N=C(N)NCCC[C@H](NC(=O)[C@@H](N)Cc1ccc(O)cc1)C(=O)NCC(=O)N[C@@H](Cc1ccc([N+](=O)[O-])cc1)C(=O)N1CCC[C@H]1C(N)=O) [BW-443C, enkephalin analog]
- analgesic potency compared with morphine [1]: more potent analgesic than morphine

Compound: Y[dM]GFP-NH2
- analgesic potency compared with morphine [1]: more potent analgesic than morphine

Compound: Leu-enkephalin
- half life (leucine amino peptidase): 45 min
